Reference: ChEMBL document CHEMBL1201862, “PubChem BioAssay data set” (2004)
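Growth conditions: 96-well plates. Treatment: test compound, 48 hours, 5 concentrations. Analysis: linear interpolation between bracketing concentrations; unreached endpoints set to highest concentration. Here, GI50 denotes the concentration required for 50% inhibition of growth.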 Calls of active or inactive are those of the source. Cut-off read from the data, not from the text of the source: active = GI50 up to about 1.1 µM and inactive = higher.

Columns and labels:
Assay in all cases: NCI tumour cell line growth inhibition, 48 h
[1] = system: LOX IMVI
[2] = system: NCI-H460
[3] = system: OVCAR-8
[4] = system: ACHN
[5] = system: 786-0
[6] = system: U-251
[7] = system: M14
[8] = system: CCRF-CEM
[9] = system: MOLT-4
[10] = system: A498
[11] = system: HCT-116
[12] = system: RPMI-8226
[13] = system: SK-MEL-5
[14] = system: HL-60
[15] = system: SF-268
[16] = system: Malme-3M
[17] = system: UACC-257
[18] = system: COLO 205
[19] = system: SNB-75
[20] = system: UO-31

Structure (SMILES) | GI50 [1] | GI50 [2] | GI50 [3] | GI50 [4] | GI50 [5] | GI50 [6] | GI50 [7] | GI50 [8] | GI50 [9] | GI50 [10] | GI50 [11] | GI50 [12] | GI50 [13] | GI50 [14] | GI50 [15] | GI50 [16] | GI50 [17] | GI50 [18] | GI50 [19] | GI50 [20]
CC(=O)OCC1OC(O[C@@H]2C[C@H]3C(C)(C)[C@@H](OC(C)=O)CC[C@]3(C)[C@H]3CC[C@]45C[C@]4(CC[C@H]5[C@@H](C)C[C@@H](O)[C@H](O)C(C)(C)F)[C@@]32C)C(O)C(O)C1O (stereo not given in full) | 1.77 µM (inactive) | 16.9 µM (inactive) | 2.34 µM (inactive) | 37.5 µM (inactive) | 1.69 µM (inactive) | 18.2 µM (inactive) | 1.76 µM (inactive) | 1.21 µM (inactive) | 1.92 µM (inactive) | 18.2 µM (inactive) | 1.56 µM (inactive) | 1.79 µM (inactive) | 1.72 µM (inactive) | 1.09 µM (active) | 1.47 µM (inactive) | 1.71 µM (inactive) | 7.57 µM (inactive) | 1.78 µM (inactive) |  | 
S=C(N/N=C(/c1ccccc1)c1ccccn1)N1CCCCCC1 |  | < 0.0283 µM (active) | < 0.0256 µM (active) | < 0.0421 µM (active) | < 0.0265 µM (active) | < 0.0252 µM (active) | 0.001 µM (active) | < 0.0133 µM (active) | < 0.0134 µM (active) | 0.269 µM (active) | 0.01 µM (active) |  | < 0.0228 µM (active) | < 0.0103 µM (active) | < 0.0391 µM (active) | < 0.0295 µM (active) | < 0.015 µM (active) | < 0.018 µM (active) | 0.036 µM (active) | 0.0904 µM (active)
COC(=O)/C(=N/NC(C)(C)C)C(C(=O)OC)C(=O)C(=O)Nc1nc2ccc([N+](=O)[O-])cc2s1 (stereo not given) | > 100 µM (inactive) | > 100 µM (inactive) | > 100 µM (inactive) | > 100 µM (inactive) | > 100 µM (inactive) | > 100 µM (inactive) | > 100 µM (inactive) | > 100 µM (inactive) | > 100 µM (inactive) | 23.6 µM (inactive) | > 100 µM (inactive) | > 100 µM (inactive) | > 100 µM (inactive) | > 100 µM (inactive) | > 100 µM (inactive) | > 100 µM (inactive) | > 100 µM (inactive) | > 100 µM (inactive) |  | > 100 µM (inactive)
N/C(=N\N=C\c1cc2ccccc2s1)c1cnccn1 | > 100 µM (inactive) | > 100 µM (inactive) | 78.2 µM (inactive) | > 100 µM (inactive) | > 100 µM (inactive) | > 100 µM (inactive) | > 100 µM (inactive) | 53.3 µM (inactive) |  | > 100 µM (inactive) | > 100 µM (inactive) | > 100 µM (inactive) | > 100 µM (inactive) | > 100 µM (inactive) | > 100 µM (inactive) |  | > 100 µM (inactive) | > 100 µM (inactive) | 29.3 µM (inactive) | > 100 µM (inactive)
Cc1cn(C2CC(O)C(COC(=O)NCCC(F)(F)C(F)(F)C(F)(F)C(F)(F)F)O2)c(=O)[nH]c1=O (stereo not given) |  | > 100 µM (inactive) | > 100 µM (inactive) | > 100 µM (inactive) | > 100 µM (inactive) | > 100 µM (inactive) | > 100 µM (inactive) | > 100 µM (inactive) | > 100 µM (inactive) | > 100 µM (inactive) | 88.5 µM (inactive) |  | > 100 µM (inactive) | > 100 µM (inactive) | > 100 µM (inactive) | > 100 µM (inactive) | > 100 µM (inactive) | > 100 µM (inactive) | 54.7 µM (inactive) | > 100 µM (inactive)
O=S1(=O)OCCOS(=O)(=O)C1Cl |  |  | > 100 µM (inactive) |  | > 100 µM (inactive) |  | > 100 µM (inactive) | > 100 µM (inactive) | > 100 µM (inactive) | > 100 µM (inactive) | > 100 µM (inactive) | > 100 µM (inactive) | > 100 µM (inactive) | > 100 µM (inactive) | > 100 µM (inactive) | > 100 µM (inactive) | > 100 µM (inactive) | > 100 µM (inactive) | > 100 µM (inactive) | > 100 µM (inactive)
COc1ccc(C(=O)N2CCc3c([nH]c4ccccc34)C2C(=O)O)o1 (stereo not given) |  |  | > 10 µM (inactive) | > 10 µM (inactive) | > 10 µM (inactive) | > 10 µM (inactive) | > 10 µM (inactive) | > 10 µM (inactive) | > 10 µM (inactive) | > 10 µM (inactive) | > 10 µM (inactive) | > 10 µM (inactive) | > 10 µM (inactive) | > 10 µM (inactive) | > 10 µM (inactive) | > 10 µM (inactive) | > 10 µM (inactive) | > 10 µM (inactive) | > 10 µM (inactive) | 
C=C(C)CCC1CC=[N+]([O-])OC1C(C)(C)C (stereo not given) | 18.5 µM (inactive) | 51.8 µM (inactive) | 66.5 µM (inactive) | 68.9 µM (inactive) | 96.4 µM (inactive) | 46.9 µM (inactive) | 21.1 µM (inactive) | 11.4 µM (inactive) | 39.2 µM (inactive) | > 100 µM (inactive) | 21.8 µM (inactive) | 41.3 µM (inactive) | 32.5 µM (inactive) | 2.65 µM (inactive) | 58.9 µM (inactive) |  | 58.6 µM (inactive) | 40.1 µM (inactive) | 31.3 µM (inactive) | 30.3 µM (inactive)
Nc1n[n+](-c2ccccc2)no1 | 42 µM (inactive) | 27.6 µM (inactive) | 80 µM (inactive) | 8.49 µM (inactive) | 52.1 µM (inactive) | 51.4 µM (inactive) | 32.7 µM (inactive) | 31.8 µM (inactive) | 13.3 µM (inactive) | 46 µM (inactive) | 28.3 µM (inactive) | 26.6 µM (inactive) | 52.7 µM (inactive) | 14.9 µM (inactive) | 42 µM (inactive) | 34.7 µM (inactive) | 25.9 µM (inactive) | 45.3 µM (inactive) |  | 83.4 µM (inactive)
COc1cc([N+](=O)[O-])ccc1NC(=O)C(F)(F)F | > 100 µM (inactive) | > 100 µM (inactive) | > 100 µM (inactive) | > 100 µM (inactive) | > 100 µM (inactive) | > 100 µM (inactive) | > 100 µM (inactive) | > 100 µM (inactive) | > 100 µM (inactive) | > 100 µM (inactive) | > 100 µM (inactive) | > 100 µM (inactive) | > 100 µM (inactive) | > 100 µM (inactive) | > 100 µM (inactive) |  | > 100 µM (inactive) | > 100 µM (inactive) | > 100 µM (inactive) | 84.3 µM (inactive)
COc1cc([N+](=O)[O-])c(S(=O)(=O)O)cc1N | > 100 µM (inactive) | > 100 µM (inactive) | > 100 µM (inactive) | > 100 µM (inactive) | > 100 µM (inactive) | > 100 µM (inactive) | > 100 µM (inactive) | > 100 µM (inactive) | > 100 µM (inactive) | > 100 µM (inactive) | > 100 µM (inactive) | > 100 µM (inactive) | > 100 µM (inactive) | > 100 µM (inactive) | > 100 µM (inactive) |  | > 100 µM (inactive) | > 100 µM (inactive) | > 100 µM (inactive) | > 100 µM (inactive)
Cn1cnc(N2CCCC2)c(C#N)c1=S | > 100 µM (inactive) | > 100 µM (inactive) | > 100 µM (inactive) | > 100 µM (inactive) | > 100 µM (inactive) | > 100 µM (inactive) | > 100 µM (inactive) | > 100 µM (inactive) | > 100 µM (inactive) | > 100 µM (inactive) | > 100 µM (inactive) | > 100 µM (inactive) | > 100 µM (inactive) | > 100 µM (inactive) | > 100 µM (inactive) | > 100 µM (inactive) | > 100 µM (inactive) | > 100 µM (inactive) |  | 23.2 µM (inactive)
O=C1OC(=O)C2C3C=CC(C12)C1C2C=CC2C31 (stereo not given) | > 100 µM (inactive) | > 100 µM (inactive) | > 100 µM (inactive) | > 100 µM (inactive) | > 100 µM (inactive) | > 100 µM (inactive) |  | > 100 µM (inactive) | > 100 µM (inactive) | > 100 µM (inactive) | > 100 µM (inactive) |  |  | > 100 µM (inactive) | > 100 µM (inactive) | > 100 µM (inactive) | > 100 µM (inactive) | > 100 µM (inactive) |  | 
NCCCn1c2ccccc2c2c3c(c4c(c21)CCC(O)CC4)C(=O)NC3=O (stereo not given) | 1.01 µM (active) | 2.06 µM (inactive) | 5.01 µM (inactive) | 1.79 µM (inactive) | 2.92 µM (inactive) | 1.75 µM (inactive) | 4.48 µM (inactive) | 0.962 µM (active) | 1.53 µM (inactive) | 9.38 µM (inactive) | 1.88 µM (inactive) | 1.98 µM (inactive) | 3.31 µM (inactive) | 9.12 µM (inactive) | 1.58 µM (inactive) | 2.14 µM (inactive) | 14.8 µM (inactive) |  |  | 6.27 µM (inactive)
CN(C)CCC1(C2=CCCC2)CC/C(=C\c2ccccc2Cl)C1=O (stereo not given) |  | 13.2 µM (inactive) | 15 µM (inactive) | 17.3 µM (inactive) | 12.6 µM (inactive) | 12.6 µM (inactive) | 12.1 µM (inactive) | 9.25 µM (inactive) | 4.57 µM (inactive) | 14.1 µM (inactive) | 8.41 µM (inactive) | 18.3 µM (inactive) | 12.8 µM (inactive) | 4.41 µM (inactive) | 14.3 µM (inactive) | 14.5 µM (inactive) | 14.8 µM (inactive) | 16.2 µM (inactive) |  | 7.24 µM (inactive)
